For 21 compounds, IC50 results are on record in patent US9255100B2 (BAYER INTELLECTUAL PROPERTY GMBH, priority 2010, dated 2016).

Where only a bound is given, the exact number is not on record here.

In the assay the target is T1, N-terminally GST-tagged human full length recombinant Mps-1 kinase (Homo sapiens, UniProt P33981).
T1 construct: N-terminally GST-tagged human full length recombinant Mps-1 kinase; purchased Invitrogen, Karslruhe, Germany PV4071
T1 sequence (P33981 1-857): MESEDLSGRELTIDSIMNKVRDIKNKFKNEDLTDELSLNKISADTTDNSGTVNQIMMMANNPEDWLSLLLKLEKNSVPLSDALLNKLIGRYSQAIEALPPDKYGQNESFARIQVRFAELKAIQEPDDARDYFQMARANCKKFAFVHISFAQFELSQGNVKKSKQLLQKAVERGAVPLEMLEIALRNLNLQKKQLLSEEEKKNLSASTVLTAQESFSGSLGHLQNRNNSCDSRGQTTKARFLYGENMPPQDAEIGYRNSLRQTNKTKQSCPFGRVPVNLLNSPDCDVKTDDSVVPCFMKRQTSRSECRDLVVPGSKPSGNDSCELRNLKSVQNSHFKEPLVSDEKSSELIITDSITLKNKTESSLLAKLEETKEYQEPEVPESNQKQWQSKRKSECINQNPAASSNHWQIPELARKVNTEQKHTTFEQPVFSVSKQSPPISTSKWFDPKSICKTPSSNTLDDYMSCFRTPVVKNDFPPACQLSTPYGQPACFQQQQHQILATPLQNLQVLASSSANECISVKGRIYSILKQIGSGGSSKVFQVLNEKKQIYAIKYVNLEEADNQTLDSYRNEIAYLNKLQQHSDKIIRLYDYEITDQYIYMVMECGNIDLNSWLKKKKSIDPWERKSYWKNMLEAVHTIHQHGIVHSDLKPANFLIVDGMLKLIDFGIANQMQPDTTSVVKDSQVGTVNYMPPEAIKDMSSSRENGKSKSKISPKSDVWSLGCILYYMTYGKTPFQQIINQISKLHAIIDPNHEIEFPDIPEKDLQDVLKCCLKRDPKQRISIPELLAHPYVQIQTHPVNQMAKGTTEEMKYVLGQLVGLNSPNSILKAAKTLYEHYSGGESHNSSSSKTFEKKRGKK
As to the kind of experiment: Mps-1 kinase assay (TR-FRET). In kind it is biochemical. The following applies: Mps1 IC50 [nM], 10 μM ATP, 1 μM peptide substrate, 60 min at 22° C. The procedure, abridged: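 Compounds were tested against recombinant full-length Mps-1 bearing an N-terminal GST tag, about 1 nM final, with a biotinylated amide-capped peptide as substrate. Detection reagents were then bound for 1 h at 22° C and the product read by TR-FRET.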
Background: Time-resolved FRET reads energy transfer from a long-lived donor to a nearby acceptor.
As usually defined, the IC50 is the point on the concentration scale where inhibition reaches its midpoint. As to `O=C(NC1CC1)c1ccc(-c2cnc3c(NCCC(F)(F)F)cc(Sc4ccccc4)nn23)c(O)c1` [Example 74, N-cyclopropyl-3-hydroxy-4-{6-(phenylsulfanyl)-8-[(3,3,3-trifluoropropyl)amino]imidazo[1,2-b]pyridazin-3-yl}benzamide], the IC50 is less than 0.7 nM.
Consider `Cc1cc(-c2cnc3c(NCC(C)(C)O)cc(Oc4cccc(F)c4)nn23)ccc1C(=O)NC1CC1` [Example 75, N-cyclopropyl-4-{6-(3-fluorophenoxy)-8-[(2-hydroxy-2-methylpropyl)amino]imidazo[1,2-b]pyridazin-3-yl}-2-methylbenzamide], for which the half-maximal inhibitory concentration (IC50) is less than 0.7 nM.
Then `Cc1cc(-c2cnc3c(NCC(C)(C)O)cc(Oc4ccccc4)nn23)ccc1C(=O)NC1CC1` [Example 76, N-cyclopropyl-4-{8-[(2-hydroxy-2-methylpropyl)amino]-6-phenoxyimidazo[1,2-b]pyridazin-3-yl}-2-methylbenzamide], with less than 0.7 nM.
Consider `Cc1cc(-c2cnc3c(NCCC(F)(F)F)cc(Oc4ccccc4)nn23)ccc1C(=O)NC1CC1` [Example 77, N-cyclopropyl-2-methyl-4-{6-phenoxy-8-[(3,3,3-trifluoropropyl)amino]imidazo[1,2-b]pyridazin-3-yl}benzamide], for which the IC50 is less than 0.7 nM.
As to `Cc1cc(-c2cnc3c(NCC(C)(C)N)cc(Sc4cccc(F)c4)nn23)ccc1C(=O)NC1CC1` [Example 78, 4-{8-[(2-Amino-2-methylpropyl)amino]-6-[(3-fluorophenyl)sulfanyl]imidazo[1,2-b]pyridazin-3-yl}-N-cyclopropyl-2-methylbenzamide], the concentration for half-maximal inhibition (IC50) came to 0.2 nM.
As for `Cc1cc(F)cc(Sc2cc(NCCC(F)(F)F)c3ncc(-c4ccc(C(=O)NC5CC5)c(C)c4)n3n2)c1` [Example 79, N-cyclopropyl-4-{6-[(3-fluoro-5-methylphenyl)sulfanyl]-8-[(3,3,3-trifluoropropyl)amino]imidazo[1,2-b]pyridazin-3-yl}-2-methylbenzamide], the IC50 is 0.7 nM.
Take `Cc1ccc(F)c(Oc2cc(NCC(C)(C)O)c3ncc(-c4ccc(C(=O)NC5CC5)c(C)c4)n3n2)c1` [Example 81, N-cyclopropyl-4-{6-(2-fluoro-5-methylphenoxy)-8-[(2-hydroxy-2-methylpropyl)amino]imidazo[1,2-b]pyridazin-3-yl}-2-methylbenzamide]: the IC50 came to 0.2 nM.
Then `Cc1cc(-c2cnc3c(NCC(C)(C)O)cc(Oc4cccc(C#N)c4)nn23)ccc1C(=O)NC1CC1` [Example 82, 4-{6-(3-Cyanophenoxy)-8-[(2-hydroxy-2-methylpropyl)amino]imidazo[1,2-b]pyridazin-3-yl}-N-cyclopropyl-2-methylbenzamide], with 0.3 nM; and `Cc1cc(-c2cnc3c(NCCC(F)(F)F)cc(S(=O)(=O)c4cccc(F)c4)nn23)ccc1C(=O)NC1CC1` [Example 83A, N-cyclopropyl-4-{6-[(3-fluorophenyl)sulfonyl]-8-[(3,3,3-trifluoropropyl)amino]imidazo[1,2-b]pyridazin-3-yl}-2-methylbenzamide], with 0.2 nM; and `Cc1cc(-c2cnc3c(NCCC(F)(F)F)cc(Sc4ccccc4)nn23)ccc1C(=S)NC1CC1` [Example 84, N-cyclopropyl-2-methyl-4-{6-(phenylsulfanyl)-8-[(3,3,3-trifluoropropyl)amino]imidazo[1,2-b]pyridazin-3-yl}benzenecarbothioamide], with 0.3 nM.
Next, `Cc1cc(-c2cnc3c(NCC(C)(C)O)cc(Oc4cccc(Cl)c4)nn23)ccc1C(=O)NC1CC1` [Example 85, 4-{6-(3-Chlorophenoxy)-8-[(2-hydroxy-2-methylpropyl)amino]imidazo[1,2-b]pyridazin-3-yl}-N-cyclopropyl-2-methylbenzamide]: 0.2 nM.
As to `COc1ccc(Oc2cc(NCC(C)(C)O)c3ncc(-c4ccc(C(=O)NC5CC5)c(C)c4)n3n2)cc1` [Example 86, N-cyclopropyl-4-{8-[(2-hydroxy-2-methylpropyl)amino]-6-(4-methoxyphenoxy)imidazo[1,2-b]pyridazin-3-yl}-2-methylbenzamide], the IC50 was 0.1 nM.
On to `Cc1cc(F)cc(Oc2cc(NCC(C)(C)O)c3ncc(-c4ccc(C(=O)NC5CC5)c(C)c4)n3n2)c1` [Example 87, N-cyclopropyl-4-{6-(3-fluoro-5-methylphenoxy)-8-[(2-hydroxy-2-methylpropyl)amino]imidazo[1,2-b]pyridazin-3-yl}-2-methylbenzamide], for which the IC50 came to 0.2 nM.
Take `Cc1cc(F)cc(Oc2cc(NCCC(F)(F)F)c3ncc(-c4ccc(C(=O)NC5CC5)c(C)c4)n3n2)c1` [Example 88, N-cyclopropyl-4-{6-(3-fluoro-5-methylphenoxy)-8-[(3,3,3-trifluoropropyl)amino]imidazo[1,2-b]pyridazin-3-yl}-2-methylbenzamide]: the IC50 turned out to be 0.4 nM.
In the case of `Cc1cc(-c2cnc3c(NCC(C)(C)O)cc(Sc4cccc(F)c4)nn23)ccc1C(=O)NC1CC1` [Example 89, N-cyclopropyl-4-{6-[(3-fluorophenyl)sulfanyl]-8-[(2-hydroxy-2-methylpropyl)amino]imidazo[1,2-b]pyridazin-3-yl}-2-methylbenzamide], the IC50 worked out at 0.2 nM.
Turning to `Cc1cc(-c2cnc3c(NCC(C)(C)O)cc(Oc4ccc(Cl)cc4)nn23)ccc1C(=O)NC1CC1` [Example 90, 4-{6-(4-Chlorophenoxy)-8-[(2-hydroxy-2-methylpropyl)amino]imidazo[1,2-b]pyridazin-3-yl}-N-cyclopropyl-2-methylbenzamide], the IC50 was 0.5 nM.
`Cc1cc(-c2cnc3c(NCC(C)(C)O)cc(Oc4ccc(F)c(Cl)c4)nn23)ccc1C(=O)NC1CC1` [Example 91, 4-{6-(3-Chloro-4-fluorophenoxy)-8-[(2-hydroxy-2-methylpropyl)amino]imidazo[1,2-b]pyridazin-3-yl}-N-cyclopropyl-2-methylbenzamide]: the IC50 came to 0.5 nM.
For the compound `Cc1cc(-c2cnc3c(NCC(C)(C)O)cc(Oc4cccc(F)c4F)nn23)ccc1C(=O)NC1CC1` [Example 92, N-cyclopropyl-4-{6-(2,3-difluorophenoxy)-8-[(2-hydroxy-2-methylpropyl)amino]imidazo[1,2-b]pyridazin-3-yl}-2-methylbenzamide], the IC50 was 0.2 nM.
Turning to `Cc1cc(-c2cnc3c(NCC(C)(C)O)cc(Oc4ccccc4F)nn23)ccc1C(=O)NC1CC1` [Example 93, N-cyclopropyl-4-{6-(2-fluorophenoxy)-8-[(2-hydroxy-2-methylpropyl)amino]imidazo[1,2-b]pyridazin-3-yl}-2-methylbenzamide], the IC50 worked out at 0.3 nM.
Consider `Cc1cc(-c2cnc3c(NCC(C)(C)O)cc(Oc4cccc(C(C)C)c4)nn23)ccc1C(=O)NC1CC1` [Example 94, N-cyclopropyl-4-{8-[(2-hydroxy-2-methylpropyl)amino]-6-(3-isopropylphenoxy)imidazo[1,2-b]pyridazin-3-yl}-2-methylbenzamide], for which the IC50 was 0.3 nM.
On to `Cc1cc(-c2cnc3c(NCC(C)(C)O)cc(Oc4ccc(Cl)c(F)c4)nn23)ccc1C(=O)NC1CC1` [Example 95, 4-{6-(4-Chloro-3-fluorophenoxy)-8-[(2-hydroxy-2-methylpropyl)amino]imidazo[1,2-b]pyridazin-3-yl}-N-cyclopropyl-2-methylbenzamide], for which the IC50 turned out to be 0.3 nM.
